Patent US20230130102A1, “Na/K-ATPase LIGANDS AND USE THEREOF FOR TREATMENT OF CANCER” (Marshall University Research Corporation, priority 2019, published 2023)
“Also recorded” adds a separate entry of the source.

What was measured:
[1] = molecular target: T1, α1 NKA/Src receptor complex (Sus scrofa, UniProt P05024); assay: ouabain-induced Src/ERK activation in LLC-PK1 cells (immunostaining, Western blot); type: cell-based, pig
T1 construct: endogenous in cells; host or cells: LLC-PK1
Protocol: Western blot, Immunoprecipitation and Immunostaining. Cells were grown to 100% confluency and Western blot were performed as described before. Images were quantified with ImageJ software from NIH. Immunoprecipitation studies were performed as described before. α1 NKA immunostaining was performed by growing cells on sterilized coverslips in 6 well tissue culture plates and permeabilization/fixation with ice-cold methanol followed by blocking with 5% horse serum and 0.1% Triton X-100 in 1× Phosphate buffered saline (PBS) for 30 minutes. Coverslips were then stained with an anti-α1 NKA antibody (Millipore, Cat #05-369) at 1:100 dilution in 1% BSA (Bovine Serum Albumin) containing 1×PBS solution for overnight. Next day after three washes, coverslips were stained with Alexa Fluor 488 conjugated anti-mouse secondary antibody (Thermo-Fisher) for 1 hour, washed extensively and then imaged using a fluorescent microscope with GFP filter or confocal microscope (LEICA-DMIRE2). E-cadherin and occludin immunostaining was performed in a similar manner. Phospho-Src, phospho ERK1/2 immunostaining were performed as described before and images were taken with a LEICA DMIRE2 confocal microscope.
Characterization of MB5 activity on the NKA receptor function known as the NKA/Src binary receptor mechanism was conducted in a pig kidney epithelial cells (LLC-PK1)-based platform using immunostaining and Western blot analyses. […] The change of NKA conformation that occurs upon binding of agonists such as ouabain, results in the release and activation of the Src kinase domain from the “Naktide” site of NKA CD3, while the other interaction (constitutive) persists between NKA CD2 and the SH2 domain of Src. […] In LLC-PK1-derived cells with low NKA receptor constitutive activity due to substantial reduction (over 80%) of α1 NKA expression by siRNA (PY17 cells), increased basal Src and ERK activity is observed due to the abnormally high amount of Src kinase that remains in an active conformation. […]

α1 NKA = molecular target: T2, α1 NKA (Homo sapiens, UniProt P05023); assay: α1 NKA endocytosis (biotinylation assay) in subclone 4; type: cell-based; details: xenograft derived clone 4
T2 construct: endogenous in cells; host or cells: subclone 4 (from DU145 α1 NKA knockdown xenograft)
Protocol: α1 NKA endocytosis assay. Endocytosis assay was performed as described before.

subclone 2 cells = assay: Boyden chamber migration assay; type: cell-based, human
Protocol: Boyden chamber assay. Different sub-clones were grown up to 100% confluency and then gently trypsinized with 0.05% trypsin-EDTA and 100,000 cells were plated in upper chamber of a […] containing transwell filter with 0.5% FBS containing media. Full serum (10% FBS) containing media was added to the lower chamber as chemoattractant. After 16 hours, a colorimetric assay was used to determine the migration of cells to the lower side of the filter, with absorbance read at 590 nm. Briefly, lower sides of the transwell were washed with 1×PBS and then fixed with ice cold methanol for 10 minutes. After gentle washes with 1×PBS, lower side of the filter were stained with Crystal violet solution (0.5% Crystal Violet in 20% Ethanol), washed and the stain was extracted with methanol. Result was normalized against migration of sub-clone 5 cells. For cell migration in presence of pharmacological compounds, cells at 100% confluency were pretreated for 24 hours with or without MB5, PP2 (Sigma-Aldrich, Catalogue No P0042) or FAK inhibitor I (Millipore, Catalogue No. 324877) and then assay was performed as described above.

parental C4-2 cells = assay: 3D culture spheroid growth, C4-2; type: cell-based, human; details: parental C4-2, 0.1-2 μM, Day 1-7
Protocol: 3D culture-spheroid invasion assay. Cells were trypsinized gently (0.05% Trypsin-EDTA) and diluted at 1000 cells in 20 μl of full serum media for DU145 and C4-2 derived sub-clones or 500 cells in 20 ul for PC3 cells and allowed to form spheroids using hanging drop technique for 3 days, as described previously. Generated spheroids were then embedded into 3D matrix (not yet solidified at the time of experiment), as described in the previous section, on top of a 1% solidified agarose coating in 48 well plates. Spheroids were monitored from day 1 to different time points and images were taken using a phase contrast microscope fitted with camera, at same settings. Spheroid growth or invasion area was quantified using ImageJ software from NIH. The following formulas were used for quantitation of spheroids:
Spheroid growth=(Spheroid area at Day 3 or 7-Spheroid area at 16 hours)/Spheroid area at 16 hours

[2] = tested on: DU145 or α1 knockdown cells (KD) xenograft; assay: tumor xenograft of DU145 or α1 KD cells in NOD/SCID mice; type: in vivo, mouse
Protocol: Mice studies. Animal protocols were approved by an Institutional Animal Care and Use Committee (IACUC) according to NIH guidelines. Tumor xenografts were established by subcutaneous injection of 5×10^6 cancer cells into the left and right flanks of 10-week-old male NOD/SCID mice (Charles River). Tumor length (L) and width (W) were measured with calipers weekly and tumor volume was estimated as V=(L×W^2)/2. After the tumor volumes reached approximately 100 mm^3, mice were sacrificed and tumors were harvested. Half of the tumors were used for protein extraction and the other half were digested with collagenase I solution (SIGMA) to isolate cancer cells.
For MB5 treatment, after tumor volume reached approximately 100 mm^3, mice were injected peritoneally with DMSO or MB5 at 20 mg/kg or 10 mg/kg daily and further monitored for tumor growth weekly. At the end of treatment period (about 2-3 weeks), tumors were harvested and tumor lysates were analyzed for protein expression by Western blot.
The therapeutic potential of MB5 in a tumor xenograft model was first tested by injecting DU145 or corresponding α1 knockdown cells (KD) into the right or left flank of 10-week-old NOD/SCID mice. The tumor growth was monitored twice weekly. Once the tumors reached a volume of approximately 100 mm^3, the animals received daily injections of MB5 at 20 mg/kg intraperitoneally for 3.5 weeks. […] Next, it was determined whether MB5 could decrease tumor growth of highly aggressive subclones derived from DU145. […] FIG. 26E summarizes the effect of MB5 treatment on all types of xenografted tumor growth from DU145 and derivative cell lines.

DU145 derived subclones = assay: Western blot / immunostaining of EMT markers, Src/FAK activation and proliferation markers in DU145 derived subclones; type: cell-based, human; details: subclone 2 cells, 1 μM, 24 hours

**Q.** What does the source list for `O=c1c2cccc(O)c2oc2c(O)c(O)ccc12` [MB5]?
**A.** ERK activation / NKA receptor function by the compound alone ([1]; baseline): did not activate NKA receptor function under baseline condition; also recorded: did not activate ERK; inhibition of ouabain-induced ERK (and Src) activation ([1]; pretreatment before ouabain): abolished ouabain-induced ERK activation; also recorded: better efficacy to inhibit ouabain-induced ERK activation than MB7; also recorded: dose-dependently inhibited Src and ERK activation; also recorded: significantly decreased ouabain-induced ERK signal; α1 NKA endocytosis (α1 NKA): abolished α1 NKA endocytosis; also recorded: significantly reduced α1 NKA endocytosis; inhibition of migration of cancer cells (subclone 2 cells; Boyden chamber assay, clone 2): about 50%; cell migration compared with PP2 and FAK inhibitor (subclone 2 cells; clone 2): as effectively as other kinase inhibitors; reduction of cell migration (subclone 2 cells; pretreatment with 100 nM for 24 hours, subclone 2): 50%; spheroid growth (parental C4-2 cells): did not significantly affect spheroid growth; reduction of tumor growth ([2]; 20 mg/kg daily intraperitoneally for 3.5 weeks, DU145 and KD groups): about 70%; bodyweight ([2]; 20 mg/kg, NOD/SCID mice): without significantly affecting bodyweight; tumor growth ([2]; 20 mg/kg/day, DU145 or KD cells): reduces tumor growth; tumor growth ([2]; all tested cell lines xenografted into NOD/SCID mice): significantly reduced tumor growth from all tested cell lines; E-cadherin and occludin expression (immunostaining) (DU145 derived subclones): Increase in E-cadherin and occludin expression
